This note sets out measurements from the NIST ThermoML archive (doi:10.1016/j.jct.2017.06.014).

For the data set the following is noted: Liquid, Ebulliometric method (Recirculating still).

Molecules are shown by their SMILES. Numbers after ± are expanded uncertainties.

For orientation: vapor or sublimation pressure means the pressure of vapour in equilibrium with the condensed phase. As for `O` [water], the “vapor or sublimation pressure” value (373.15 K) is 101.3 ± 1.1 kPa.
In the case of `CCCO` [propan-1-ol], the “vapor or sublimation pressure” value (370.35 K) amounted to 101.3 ± 1.1 kPa.
